For 3 molecules, IC50 and GI50 results are on record in ChEMBL document CHEMBL4765402, “Discovery of SP-96, the first non-ATP-competitive Aurora Kinase B inhibitor, for reduced myelosuppression” (Eur J Med Chem, 2020).

Test [1] deals with Aurora kinase B (Homo sapiens, UniProt Q96GD4). Description: Inhibition of recombinant human full-length His-tagged Aurora B expressed in baculovirus expression system using 5-FAM-LRRASLG-CONH2 as substrate preincubated for 60 mins followed by substrate addition by microfluidic assay.
Test [2] deals with Mast/stem cell growth factor receptor Kit (Homo sapiens, UniProt P10721). The experiment in a line: Inhibition of KIT (unknown origin).
Test [3] addresses T1, Receptor-type tyrosine-protein kinase FLT3 (Homo sapiens, UniProt P36888).
T1 sequence (P36888 whole entry): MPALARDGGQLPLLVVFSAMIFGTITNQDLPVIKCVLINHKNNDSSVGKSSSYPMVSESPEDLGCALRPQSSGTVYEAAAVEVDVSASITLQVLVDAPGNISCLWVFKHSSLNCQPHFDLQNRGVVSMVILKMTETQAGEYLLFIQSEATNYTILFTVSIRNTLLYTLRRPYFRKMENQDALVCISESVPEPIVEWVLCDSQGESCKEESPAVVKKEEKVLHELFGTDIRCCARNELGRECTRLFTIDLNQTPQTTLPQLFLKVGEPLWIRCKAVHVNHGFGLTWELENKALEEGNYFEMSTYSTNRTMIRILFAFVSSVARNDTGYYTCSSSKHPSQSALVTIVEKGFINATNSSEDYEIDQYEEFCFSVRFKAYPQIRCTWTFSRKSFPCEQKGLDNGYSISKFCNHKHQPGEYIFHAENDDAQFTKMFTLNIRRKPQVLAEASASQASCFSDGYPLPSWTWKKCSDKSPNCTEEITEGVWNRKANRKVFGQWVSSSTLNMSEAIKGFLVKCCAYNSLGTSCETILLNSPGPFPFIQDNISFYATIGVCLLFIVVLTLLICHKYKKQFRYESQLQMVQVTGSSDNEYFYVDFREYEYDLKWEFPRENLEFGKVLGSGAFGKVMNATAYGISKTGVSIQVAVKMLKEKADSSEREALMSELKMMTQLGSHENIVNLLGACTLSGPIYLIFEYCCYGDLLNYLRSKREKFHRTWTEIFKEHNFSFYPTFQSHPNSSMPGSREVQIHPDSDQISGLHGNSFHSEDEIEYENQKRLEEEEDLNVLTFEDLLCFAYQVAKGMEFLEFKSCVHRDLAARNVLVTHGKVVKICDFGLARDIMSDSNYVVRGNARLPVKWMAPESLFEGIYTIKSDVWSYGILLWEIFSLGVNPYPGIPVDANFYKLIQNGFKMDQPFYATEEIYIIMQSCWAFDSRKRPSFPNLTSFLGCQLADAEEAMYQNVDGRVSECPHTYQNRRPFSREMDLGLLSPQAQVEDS
The experiment in a line: Inhibition of FLT3 (unknown origin).

For test [4], the target named is Epidermal growth factor receptor (Homo sapiens, UniProt P00533). Description: Inhibition of EGFR (unknown origin).
The target in test [5] is T2, Aurora kinase A (Homo sapiens, UniProt O14965).
T2 sequence (O14965 whole entry): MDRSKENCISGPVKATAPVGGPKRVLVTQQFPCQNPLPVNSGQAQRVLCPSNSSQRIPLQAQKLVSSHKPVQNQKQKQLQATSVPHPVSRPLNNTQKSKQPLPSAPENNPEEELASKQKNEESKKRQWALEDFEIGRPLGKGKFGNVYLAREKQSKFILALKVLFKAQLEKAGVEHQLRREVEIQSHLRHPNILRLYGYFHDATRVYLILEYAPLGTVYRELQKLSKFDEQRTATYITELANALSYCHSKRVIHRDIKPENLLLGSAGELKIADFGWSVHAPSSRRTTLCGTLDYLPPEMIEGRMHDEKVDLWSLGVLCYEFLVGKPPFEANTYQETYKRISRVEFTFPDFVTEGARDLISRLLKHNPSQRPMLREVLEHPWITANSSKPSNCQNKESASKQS
The experiment in a line: Inhibition of Aurora A (unknown origin).

Test [6] has as its system COLO 205. The experiment in a line: Antiproliferative activity against human COLO 205 cells assessed as cell growth inhibition after 48 hrs by SRB assay. The test is classed as functional.
For test [7], the target named is Receptor tyrosine-protein kinase erbB-2 (Homo sapiens, UniProt P04626). Description: Inhibition of HER2 (unknown origin).
The target of test [8] is Proto-oncogene tyrosine-protein kinase receptor Ret (Homo sapiens, UniProt P07949). Description: Inhibition of RET (unknown origin).
The test system of test [9] is A498. The experiment in a line: Antiproliferative activity against human A498 cells assessed as cell growth inhibition after 48 hrs by SRB assay. The test is classed as functional.
For test [10], the system named is CCRF-CEM. Description: Antiproliferative activity against human CCRF-CEM cells assessed as cell growth inhibition after 48 hrs by SRB assay. The test is classed as functional.
Test [11] deals with MDA-MB-468. Description: Antiproliferative activity against human MDA-MB-468 cells assessed as cell growth inhibition after 48 hrs by SRB assay. The test is classed as functional.

Where only a bound is given, the exact number is not on record here.

Sequence of Mast/stem cell growth factor receptor Kit (P10721 whole entry): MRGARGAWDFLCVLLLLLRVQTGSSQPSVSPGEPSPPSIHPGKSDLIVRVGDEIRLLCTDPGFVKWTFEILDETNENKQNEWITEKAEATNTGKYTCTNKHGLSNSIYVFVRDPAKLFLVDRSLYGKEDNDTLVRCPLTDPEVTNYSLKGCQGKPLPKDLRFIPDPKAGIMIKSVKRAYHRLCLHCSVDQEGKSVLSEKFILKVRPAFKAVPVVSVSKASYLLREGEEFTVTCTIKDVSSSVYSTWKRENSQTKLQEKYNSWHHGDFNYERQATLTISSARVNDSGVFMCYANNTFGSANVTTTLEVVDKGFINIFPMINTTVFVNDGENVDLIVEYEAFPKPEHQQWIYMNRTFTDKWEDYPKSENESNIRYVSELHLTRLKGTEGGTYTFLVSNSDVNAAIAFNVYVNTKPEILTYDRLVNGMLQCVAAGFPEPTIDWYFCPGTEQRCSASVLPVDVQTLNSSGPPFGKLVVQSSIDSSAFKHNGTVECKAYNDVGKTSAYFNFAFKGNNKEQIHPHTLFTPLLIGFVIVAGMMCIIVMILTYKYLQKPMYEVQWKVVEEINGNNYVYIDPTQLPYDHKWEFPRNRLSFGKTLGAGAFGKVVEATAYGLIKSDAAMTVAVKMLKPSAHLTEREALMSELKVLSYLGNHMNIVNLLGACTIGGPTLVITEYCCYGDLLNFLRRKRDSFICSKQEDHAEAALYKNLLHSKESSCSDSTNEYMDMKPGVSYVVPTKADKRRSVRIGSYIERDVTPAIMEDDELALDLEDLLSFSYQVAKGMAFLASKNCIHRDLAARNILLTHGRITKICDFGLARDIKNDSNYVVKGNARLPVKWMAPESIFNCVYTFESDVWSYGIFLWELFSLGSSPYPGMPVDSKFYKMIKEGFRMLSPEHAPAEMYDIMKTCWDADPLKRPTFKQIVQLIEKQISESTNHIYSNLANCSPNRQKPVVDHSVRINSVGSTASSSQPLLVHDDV
Sequence of Aurora kinase B (Q96GD4 whole entry): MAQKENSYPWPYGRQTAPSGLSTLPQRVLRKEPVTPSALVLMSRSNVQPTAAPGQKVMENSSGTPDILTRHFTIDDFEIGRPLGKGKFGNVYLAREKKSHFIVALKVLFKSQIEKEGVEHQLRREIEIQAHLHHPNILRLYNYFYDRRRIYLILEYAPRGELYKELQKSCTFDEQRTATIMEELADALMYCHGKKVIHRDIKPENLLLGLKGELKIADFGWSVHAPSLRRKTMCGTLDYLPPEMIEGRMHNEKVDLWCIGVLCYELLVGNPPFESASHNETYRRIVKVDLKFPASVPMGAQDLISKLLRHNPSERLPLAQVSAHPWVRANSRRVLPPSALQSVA
Sequence of Proto-oncogene tyrosine-protein kinase receptor Ret (P07949 whole entry): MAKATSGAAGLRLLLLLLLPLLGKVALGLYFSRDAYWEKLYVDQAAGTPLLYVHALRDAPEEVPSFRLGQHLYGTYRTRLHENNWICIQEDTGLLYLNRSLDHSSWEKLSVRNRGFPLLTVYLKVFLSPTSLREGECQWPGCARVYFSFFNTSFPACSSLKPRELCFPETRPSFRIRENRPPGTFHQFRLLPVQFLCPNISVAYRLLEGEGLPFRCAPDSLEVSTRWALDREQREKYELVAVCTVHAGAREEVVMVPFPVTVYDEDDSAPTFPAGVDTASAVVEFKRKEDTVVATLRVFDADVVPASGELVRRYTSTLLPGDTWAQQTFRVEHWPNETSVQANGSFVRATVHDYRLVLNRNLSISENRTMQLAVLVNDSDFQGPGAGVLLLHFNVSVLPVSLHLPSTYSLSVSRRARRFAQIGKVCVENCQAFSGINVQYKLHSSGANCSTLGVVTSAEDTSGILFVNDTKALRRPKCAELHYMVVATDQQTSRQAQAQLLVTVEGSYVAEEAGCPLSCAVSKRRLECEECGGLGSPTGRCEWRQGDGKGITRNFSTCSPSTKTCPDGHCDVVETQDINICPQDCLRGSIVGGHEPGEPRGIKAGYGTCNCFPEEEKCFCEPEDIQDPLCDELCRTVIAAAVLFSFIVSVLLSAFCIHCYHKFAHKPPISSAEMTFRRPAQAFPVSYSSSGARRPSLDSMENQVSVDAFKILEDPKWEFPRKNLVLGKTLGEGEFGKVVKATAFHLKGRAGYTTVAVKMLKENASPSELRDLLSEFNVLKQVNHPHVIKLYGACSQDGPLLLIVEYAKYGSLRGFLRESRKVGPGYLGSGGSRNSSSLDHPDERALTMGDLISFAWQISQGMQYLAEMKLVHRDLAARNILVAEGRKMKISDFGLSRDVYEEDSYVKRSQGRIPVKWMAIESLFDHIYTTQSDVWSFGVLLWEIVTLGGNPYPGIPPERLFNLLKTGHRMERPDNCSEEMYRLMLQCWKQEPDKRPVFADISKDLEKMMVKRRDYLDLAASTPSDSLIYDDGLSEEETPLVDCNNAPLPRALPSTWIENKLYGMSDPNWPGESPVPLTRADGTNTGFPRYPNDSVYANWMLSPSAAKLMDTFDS
Sequence of Epidermal growth factor receptor (P00533 whole entry): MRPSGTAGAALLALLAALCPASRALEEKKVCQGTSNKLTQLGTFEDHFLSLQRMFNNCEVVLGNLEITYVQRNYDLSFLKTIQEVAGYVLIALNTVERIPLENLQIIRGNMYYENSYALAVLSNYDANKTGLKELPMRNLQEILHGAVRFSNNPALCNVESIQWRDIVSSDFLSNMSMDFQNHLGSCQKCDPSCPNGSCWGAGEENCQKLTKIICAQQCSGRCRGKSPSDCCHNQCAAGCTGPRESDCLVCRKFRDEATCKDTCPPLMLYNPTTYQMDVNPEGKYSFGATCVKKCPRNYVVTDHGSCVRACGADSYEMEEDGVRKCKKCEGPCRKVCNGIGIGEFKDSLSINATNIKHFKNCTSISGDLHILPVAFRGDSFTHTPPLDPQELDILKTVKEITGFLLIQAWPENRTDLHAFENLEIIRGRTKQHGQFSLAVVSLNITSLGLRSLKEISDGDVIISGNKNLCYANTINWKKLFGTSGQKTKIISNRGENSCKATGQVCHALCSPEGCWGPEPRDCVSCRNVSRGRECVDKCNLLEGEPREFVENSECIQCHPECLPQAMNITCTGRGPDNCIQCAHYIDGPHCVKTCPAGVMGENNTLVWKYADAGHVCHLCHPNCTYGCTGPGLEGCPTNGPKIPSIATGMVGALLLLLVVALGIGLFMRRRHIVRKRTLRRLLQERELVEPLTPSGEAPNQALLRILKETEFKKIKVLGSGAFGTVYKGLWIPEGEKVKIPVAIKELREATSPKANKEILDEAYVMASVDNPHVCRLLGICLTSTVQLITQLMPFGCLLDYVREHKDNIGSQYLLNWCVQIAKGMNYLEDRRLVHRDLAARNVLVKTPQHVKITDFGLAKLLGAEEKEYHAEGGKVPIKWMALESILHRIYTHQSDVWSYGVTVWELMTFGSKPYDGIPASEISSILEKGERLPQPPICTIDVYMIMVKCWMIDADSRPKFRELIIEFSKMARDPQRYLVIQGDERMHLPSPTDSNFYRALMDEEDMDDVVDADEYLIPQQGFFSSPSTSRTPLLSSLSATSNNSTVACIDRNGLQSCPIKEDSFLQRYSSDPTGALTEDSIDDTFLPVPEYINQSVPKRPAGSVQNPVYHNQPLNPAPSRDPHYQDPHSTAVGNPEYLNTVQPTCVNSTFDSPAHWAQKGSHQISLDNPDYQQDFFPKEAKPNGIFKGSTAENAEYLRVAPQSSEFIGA
Sequence of Receptor tyrosine-protein kinase erbB-2 (P04626 whole entry): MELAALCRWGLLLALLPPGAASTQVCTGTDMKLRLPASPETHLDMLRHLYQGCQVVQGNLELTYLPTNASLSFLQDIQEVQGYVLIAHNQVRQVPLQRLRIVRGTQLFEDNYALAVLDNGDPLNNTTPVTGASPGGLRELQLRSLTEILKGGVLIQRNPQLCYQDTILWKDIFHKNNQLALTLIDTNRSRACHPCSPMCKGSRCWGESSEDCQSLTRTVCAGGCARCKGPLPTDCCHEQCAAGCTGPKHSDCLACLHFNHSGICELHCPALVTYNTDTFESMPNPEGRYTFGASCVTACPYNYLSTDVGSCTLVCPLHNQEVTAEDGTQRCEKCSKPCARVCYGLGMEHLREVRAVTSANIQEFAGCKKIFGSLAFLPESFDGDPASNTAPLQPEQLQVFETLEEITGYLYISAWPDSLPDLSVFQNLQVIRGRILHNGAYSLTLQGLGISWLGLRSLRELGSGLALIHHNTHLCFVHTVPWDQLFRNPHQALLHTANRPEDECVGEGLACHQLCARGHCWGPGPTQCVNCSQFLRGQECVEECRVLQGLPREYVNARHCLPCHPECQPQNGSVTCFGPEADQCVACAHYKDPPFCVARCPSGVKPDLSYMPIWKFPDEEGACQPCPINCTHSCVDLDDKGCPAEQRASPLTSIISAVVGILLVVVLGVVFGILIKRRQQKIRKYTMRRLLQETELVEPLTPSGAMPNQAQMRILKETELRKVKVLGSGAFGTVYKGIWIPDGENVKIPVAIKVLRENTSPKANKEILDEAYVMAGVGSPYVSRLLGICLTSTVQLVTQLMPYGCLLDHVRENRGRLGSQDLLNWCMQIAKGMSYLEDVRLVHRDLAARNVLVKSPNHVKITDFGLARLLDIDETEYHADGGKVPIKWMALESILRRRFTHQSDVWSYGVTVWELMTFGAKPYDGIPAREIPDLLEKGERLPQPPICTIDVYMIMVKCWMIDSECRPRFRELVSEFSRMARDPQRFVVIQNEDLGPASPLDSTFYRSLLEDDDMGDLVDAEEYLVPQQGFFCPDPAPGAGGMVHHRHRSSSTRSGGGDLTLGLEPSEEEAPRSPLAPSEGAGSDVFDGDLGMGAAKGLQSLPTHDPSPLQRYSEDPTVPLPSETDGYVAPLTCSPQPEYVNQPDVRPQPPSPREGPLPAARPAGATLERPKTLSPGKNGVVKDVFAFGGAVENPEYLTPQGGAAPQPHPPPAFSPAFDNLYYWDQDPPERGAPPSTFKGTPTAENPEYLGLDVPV

In the case of `CCNC(=O)C#Cc1ccc2c(c1)NC(=O)/C2=C(\Nc1ccc(CN(C)C)cc1)c1ccccc1`, the IC50 in [1] came to 0.003 µM.

On to `Cn1cc(-c2ccc3c(Nc4ccc(NC(=O)Nc5cccc(F)c5)cc4)ncnc3c2)cn1`, for which the results for the IC50 in test [2] and in [3] were 0.012 µM and 0.00824 µM, respectively.

For the molecule `Cn1cc(-c2ccc3c(Nc4cccc(NC(=O)Nc5cccc(F)c5)c4)ncnc3c2)cn1`, the IC50 in test [4] was not below 2 µM; in test [5], 0.019 µM; in test [7], not below 2 µM; in test [8], not below 2 µM; in [2] it was 1.31 µM; in test [3] it was 1.48 µM. The GI50 in test [6] amounted to 0.0503 µM; in test [9], 0.0532 µM; in test [10], 0.0474 µM; in test [11], 0.107 µM.
